# Assay results: PubChem BioAssay (NCI)
#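 Dose response: 5 concentrations. Exposure: 48 h. Format: 96-well plates. Endpoint: linear interpolation; highest concentration if not reached. TGI is the concentration that stops growth completely.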
# What was measured:
# Assay in all cases: NCI tumour cell line growth inhibition, 48 h
# [1] = test system: SW-620 colon
# [2] = test system: M19-MEL melanoma
# [3] = test system: OVCAR-8 ovarian
# [4] = test system: IGROV1 ovarian
# [5] = test system: SK-MEL-5 melanoma
# [6] = test system: KM20L2 colon
# [7] = test system: SK-MEL-28 melanoma
# [8] = test system: K-562 leukemia
# [9] = test system: SN12C renal
# [10] = test system: SF-539 CNS
# [11] = test system: P388 leukemia
# [12] = test system: HOP-92 NSCLC
# [13] = test system: PC-3 prostate
# [14] = test system: HCT-15 colon
# [15] = test system: OVCAR-3 ovarian
# [16] = test system: CCRF-CEM leukemia
# [17] = test system: SNB-19 CNS
# [18] = test system: CAKI-1 renal
# [19] = test system: LOX IMVI melanoma
# [20] = test system: DU-145 prostate
# [21] = test system: DLD-1 colon
# [22] = test system: NCI/ADR-RES ovarian
# [23] = test system: HT29 colon
# [24] = test system: DMS 273 small cell lung
# [25] = test system: HCC-2998 colon
# [26] = test system: MOLT-4 leukemia
# [27] = test system: HCT-116 colon
# [28] = test system: MDA-MB-435
# [29] = test system: LXFL 529 NSCLC
# [30] = test system: OVCAR-4 ovarian
# [31] = test system: HOP-62 NSCLC
# [32] = test system: SF-295 CNS
# [33] = test system: MDA-MB-231 breast
# [34] = test system: P388/ADR leukemia
# [35] = test system: HL-60(TB) leukemia
# [36] = test system: BT-549 breast
# [37] = test system: A498 renal
# [38] = test system: TK-10 renal
# [39] = test system: 786-0 renal
# [40] = test system: NCI-H23 lung
# [41] = test system: SNB-75 CNS
# [42] = test system: SK-OV-3 ovarian
# [43] = test system: M14 melanoma
# [44] = test system: A549 NSCLC
# [45] = test system: NCI-H226 lung
# [46] = test system: KM12 colon
# [47] = test system: UACC-257 melanoma
# [48] = test system: ACHN renal
# [49] = test system: SR leukemia
# [50] = test system: UO-31 renal
# [51] = test system: RXF 393 renal
# [52] = test system: U251 CNS
# [53] = test system: MCF7 breast
# [54] = test system: EKVX NSCLC
# [55] = test system: RPMI-8226 leukemia
# [56] = test system: SNB-78 CNS
# [57] = test system: DMS 114 small cell lung
# [58] = test system: HOP-18 NSCLC
# [59] = test system: COLO 205 colon
# [60] = test system: XF 498 CNS
# [61] = test system: SK-MEL-2 melanoma
# [62] = test system: MALME-3M melanoma
# [63] = test system: OVCAR-5 ovarian
# [64] = test system: NCI-H460 lung
# [65] = test system: NCI-H522 lung
# [66] = test system: SF-268 CNS
# [67] = test system: MDA-N
# [68] = test system: UACC-62 melanoma
# [69] = test system: RXF-631 renal
smiles,measurement,setting,value
COc1ccc2nc3ccccc3c(NCCN(C)CCCl)c2c1,TGI,[1],1.91 µM
same,TGI,[2],2.48 µM
same,TGI,[3],2.76 µM
same,TGI,[4],2.58 µM
same,TGI,[5],2.03 µM
same,TGI,[6],2.88 µM
same,TGI,[7],3.97 µM
same,TGI,[8],9.24 µM
same,TGI,[9],2.86 µM
same,TGI,[10],1.85 µM
same,TGI,[11],1.51 µM
same,TGI,[12],3.85 µM
same,TGI,[13],2.24 µM
same,TGI,[14],7.56 µM
same,TGI,[15],3.29 µM
same,TGI,[16],3.67 µM
same,TGI,[17],7.44 µM
same,TGI,[18],2.2 µM
same,TGI,[19],1.77 µM
same,TGI,[20],4.47 µM
same,TGI,[21],3.45 µM
same,TGI,[22],3.79 µM
same,TGI,[23],4.95 µM
same,TGI,[24],2.35 µM
same,TGI,[25],2.15 µM
same,TGI,[26],0.497 µM
same,TGI,[27],2.63 µM
same,TGI,[28],2.15 µM
same,TGI,[29],1.85 µM
same,TGI,[30],2.8 µM
same,TGI,[31],3.7 µM
same,TGI,[32],4.17 µM
same,TGI,[33],2.98 µM
same,TGI,[34],8.73 µM
same,TGI,[35],1.73 µM
same,TGI,[36],3.24 µM
same,TGI,[37],3.02 µM
same,TGI,[38],15.7 µM
same,TGI,[39],1.89 µM
same,TGI,[40],1.88 µM
same,TGI,[41],4.07 µM
same,TGI,[42],3.5 µM
same,TGI,[43],2.29 µM
same,TGI,[44],4.88 µM
same,TGI,[45],2.26 µM
same,TGI,[46],4.13 µM
same,TGI,[47],9.46 µM
same,TGI,[48],1.91 µM
same,TGI,[49],2.31 µM
same,TGI,[50],3.38 µM
same,TGI,[51],1.86 µM
same,TGI,[52],3.16 µM
same,TGI,[53],4.18 µM
same,TGI,[54],4.37 µM
same,TGI,[55],1.53 µM
same,TGI,[56],4.76 µM
same,TGI,[57],2.31 µM
same,TGI,[58],6.29 µM
same,TGI,[59],1.84 µM
same,TGI,[60],2.3 µM
same,TGI,[61],2.41 µM
same,TGI,[62],1.5 µM
same,TGI,[63],3.84 µM
same,TGI,[64],2.49 µM
same,TGI,[65],1.51 µM
same,TGI,[66],3.85 µM
same,TGI,[67],2.4 µM
same,TGI,[68],2.03 µM
COc1cc2c(cc1OC)C1Cc3sccc3CN1CC2 (configuration not stated),TGI,[1],> 100 µM
same,TGI,[2],> 100 µM
same,TGI,[3],> 100 µM
same,TGI,[4],> 100 µM
same,TGI,[5],> 100 µM
same,TGI,[6],> 100 µM
same,TGI,[8],> 100 µM
same,TGI,[9],> 100 µM
same,TGI,[10],> 100 µM
same,TGI,[12],> 100 µM
same,TGI,[14],> 100 µM
same,TGI,[15],> 100 µM
same,TGI,[16],> 100 µM
same,TGI,[17],> 100 µM
same,TGI,[18],> 100 µM
same,TGI,[19],> 100 µM
same,TGI,[21],> 100 µM
same,TGI,[23],> 100 µM
same,TGI,[24],> 100 µM
same,TGI,[25],> 100 µM
same,TGI,[26],> 100 µM
same,TGI,[27],> 100 µM
same,TGI,[29],> 100 µM
same,TGI,[30],> 100 µM
same,TGI,[31],> 100 µM
same,TGI,[32],> 100 µM
same,TGI,[35],> 100 µM
same,TGI,[38],> 100 µM
same,TGI,[40],> 100 µM
same,TGI,[41],> 100 µM
same,TGI,[42],> 100 µM
same,TGI,[43],> 100 µM
same,TGI,[44],> 100 µM
same,TGI,[45],> 100 µM
same,TGI,[47],> 100 µM
same,TGI,[48],> 100 µM
same,TGI,[49],> 100 µM
same,TGI,[50],> 100 µM
same,TGI,[51],> 100 µM
same,TGI,[52],> 100 µM
same,TGI,[54],> 100 µM
same,TGI,[55],> 100 µM
same,TGI,[56],> 100 µM
same,TGI,[57],> 100 µM
same,TGI,[69],> 100 µM
same,TGI,[58],> 100 µM
same,TGI,[60],> 100 µM
same,TGI,[61],> 100 µM
same,TGI,[62],> 100 µM
same,TGI,[63],> 100 µM
same,TGI,[64],> 100 µM
same,TGI,[65],> 100 µM
same,TGI,[66],> 100 µM
same,TGI,[68],> 100 µM
